Measured values as given in patent US20200109126A1 (priority 2017, published 2020).

Columns and labels:
[1] = target: T1, μOR (Homo sapiens, UniProt P35372); assay: cell-based; assay type: cell-based; conditions: for EC50: Gi/o EC50 nM
[2] = target: T1, μOR; assay: β-arrestin recruitment at μOR without GRK2; assay type: cell-based
[3] = target: T1, μOR; assay: β-arrestin recruitment at μOR with GRK2 co-expression; assay type: cell-based
[4] = target: hKOR (Homo sapiens, UniProt P41145); assay: Receptor binding with [3H]diprenorphine at hKOR; conditions: PZM analogs; (n) = number of independent experiments; read-out: binding affinity Ki hKOR
[5] = target: humanDOR (Homo sapiens, UniProt P41143); assay: Receptor binding with [3H]diprenorphine at human DOR; conditions: PZM analogs; (n) = number of independent experiments; read-out: binding affinity Ki hDOR
[6] = target: hMOR (Homo sapiens, UniProt P35372); assay: Receptor binding with [3H]diprenorphine at hMOR; conditions: PZM analogs; (n) = number of independent experiments; read-out: binding affinity Ki hMOR
Sequence of hMOR (P35372 whole entry): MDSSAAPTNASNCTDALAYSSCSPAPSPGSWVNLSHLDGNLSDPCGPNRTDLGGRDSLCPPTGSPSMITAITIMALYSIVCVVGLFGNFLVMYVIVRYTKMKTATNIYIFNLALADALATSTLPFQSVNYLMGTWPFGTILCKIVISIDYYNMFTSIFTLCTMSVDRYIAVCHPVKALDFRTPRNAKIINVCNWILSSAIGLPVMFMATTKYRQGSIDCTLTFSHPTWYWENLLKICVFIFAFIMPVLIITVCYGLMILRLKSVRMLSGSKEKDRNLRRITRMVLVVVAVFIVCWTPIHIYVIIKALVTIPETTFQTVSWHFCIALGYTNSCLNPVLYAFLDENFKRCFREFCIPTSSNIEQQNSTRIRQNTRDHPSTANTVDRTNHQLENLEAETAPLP

T1 sequence (P35372 whole entry): as above
Sequence of hKOR (P41145 whole entry): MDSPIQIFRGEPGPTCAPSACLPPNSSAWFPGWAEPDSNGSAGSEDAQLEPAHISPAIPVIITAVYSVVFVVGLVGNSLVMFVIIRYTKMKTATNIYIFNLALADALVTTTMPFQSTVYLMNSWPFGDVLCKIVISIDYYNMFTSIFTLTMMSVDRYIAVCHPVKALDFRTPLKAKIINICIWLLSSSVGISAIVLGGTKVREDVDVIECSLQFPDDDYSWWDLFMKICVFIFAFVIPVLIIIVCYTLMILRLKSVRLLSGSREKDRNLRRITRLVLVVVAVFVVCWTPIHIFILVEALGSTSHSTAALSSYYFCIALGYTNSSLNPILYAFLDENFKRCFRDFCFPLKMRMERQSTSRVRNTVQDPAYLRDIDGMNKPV
Sequence of humanDOR (P41143 whole entry): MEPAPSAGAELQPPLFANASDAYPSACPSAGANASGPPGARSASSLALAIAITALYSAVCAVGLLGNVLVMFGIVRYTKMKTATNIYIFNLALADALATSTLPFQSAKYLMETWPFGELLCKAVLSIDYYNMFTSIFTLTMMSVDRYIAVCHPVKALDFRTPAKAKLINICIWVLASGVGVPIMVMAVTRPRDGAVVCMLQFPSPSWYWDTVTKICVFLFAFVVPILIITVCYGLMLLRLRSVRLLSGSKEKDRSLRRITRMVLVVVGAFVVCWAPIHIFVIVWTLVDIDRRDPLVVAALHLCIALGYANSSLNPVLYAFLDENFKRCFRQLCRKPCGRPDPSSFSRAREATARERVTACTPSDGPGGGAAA

SMILES	Arrestin Emax % DAMGO [2] [% DAMGO]	Arrestin + GRK2 Emax % DAMGO [3] [% DAMGO]	Gi/o Emax % DAMGO [1] [% DAMGO]	EC50 [1] [nM]	EC50 ([2]; read-out: Arrestin EC50) [nM]	EC50 ([3]; read-out: Arrestin + GRK2 EC50) [nM]	Ki [4] [nM]	Ki [5] [nM]	Ki [6] [nM]	other results
C[C@H](Cc1ccsc1)NC(=O)NC[C@H](Cc1ccc(O)cc1)N(C)C [(S,R)-21, 1-[(S)-2-(Dimethylamino)-3-(4-hydroxyphenyl)propyl]-3-((R)-1-(thiophen-3-yl)propan-2-yl)urea]	–	–	–	–	–	–	–	–	–	Gi/o activation, μOR agonist activity (in words) [1]: more potent partial agonist of the μOR as compared to (S,S)-21
C[C@@H](Cc1ccsc1)NC(=O)NC[C@H](Cc1ccccc1)N(C)C [(S,S)-12, 1-[(S)-2-(Dimethylamino)-3-phenylpropyl]-3-[(S)-1-(thiophen-3-yl)propan-2-yl]urea]	–	–	–	–	–	–	–	–	–	Gi/o activation, μOR agonist activity (in words) [1]: most potent and efficacious Gi/o signaling agonist among the four isomers
C[C@@H](NC(=O)[C@@H](N)Cc1ccc(O)cc1)C(=O)NCC(=O)N(C)[C@@H](Cc1ccccc1)C(=O)NCCO [DAMGO, reference compound]	100	100	–	–	–	–	–	–	–	–
C[C@@H](Cc1csc2ccccc12)NC(=O)NC[C@H](Cc1ccc(O)cc1)N(C)C [DD63L-B]	38	92	88	5.7	397	82.1	–	–	–	–
CN(C)[C@H](CNC(=S)NCCc1ccsc1)Cc1ccc(O)cc1 [DD81, (S)-1-(2-(dimethylamino)-3-(4-hydroxyphenyl)propyl)-3-(2-(thiophen-3-yl)ethyl)thiourea]	3	27	22	15.1	24.9	67.1	–	–	–	–
CC[C@@H](Cc1ccsc1)NC(=O)NC[C@H](Cc1ccc(O)cc1)N(C)C [DD88B, 1-((S)-2-(dimethylamino)-3-(4-hydroxyphenyl)propyl)-3-((S)-1-(thiophen-3-yl)butan-2-yl)urea]	5	45	–	–	–	–	–	–	–	–
CN(C)[C@H](CNC(=O)NCCc1ccccc1)Cc1ccc(O)cc1 [DD90]	5	31	76	4.25	53.5	144	–	–	–	–
CN(CCc1ccccc1)C(=O)NC[C@H](Cc1ccc(O)cc1)N(C)C [DD102]	30	61	76	37.9	1980	1500	–	–	–	EC50 ([2]; read-out: Arrestin pEC50 (converted)): 1980 nM
CN(C[C@H](Cc1ccc(O)cc1)N(C)C)C(=O)NCCc1ccccc1 [DD108]	120	118	86	35.1	4710	1490	–	–	–	EC50 ([3]; read-out: Arrestin + GRK2 pEC50 (converted)): 1490 nM
CN(C)[C@H](CNC(=O)NC(C)(C)Cc1ccsc1)Cc1ccc(O)cc1 [drawing 528]	–	–	–	–	–	–	46	650	38	–
CN(C)[C@H](CNC(=O)NC(C)(C)Cc1ccccc1)Cc1ccc(O)cc1 [drawing 530]	–	–	–	–	–	–	91	920	46	–
C[C@@H](Cc1ccsc1)NC(=O)NC[C@H](Cc1cccc(O)c1)N(C)C [drawing 531]	–	–	–	–	–	–	46	350	34	–
CN(C)[C@H](CNC(=O)NC(C)(C)Cc1ccsc1)Cc1cccc(O)c1 [drawing 532]	–	–	–	–	–	–	32	190	25	–
C[C@@H](Cc1ccsc1)NC(=O)NC[C@H](Cc1ccc(O)c(CO)c1)N(C)C [drawing 535]	–	–	–	–	–	–	86	1500	66	–
Cc1cc(O)cc(C)c1C[C@@H](CNC(=O)N[C@H](C)Cc1ccsc1)N(C)C [drawing 537]	–	–	–	–	–	–	12	17	4.1	–
Cc1cc(O)cc(C)c1C[C@@H](CNC(=O)N[C@@H](C)Cc1ccsc1)N(C)C [drawing 538]	–	–	–	–	–	–	6.5	85	12	–
